The results in this text go back to patent US20090298820A1, “3-SUBSTITUTED-1H-PYRROLO[2,3-B]PYRIDINE AND 3-SUBSTITUTED-1H-PYRROLO[3,2-B]PYRIDINE COMPOUNDS, THEIR USE AS MTOR KINASE AND PI3 KINASE INHIBITORS, AND THEIR SYNTHESES” (Wyeth, priority 2008, published 2009).

Holding throughout (assay type): biochemical
The target of one assay is PI3Kα (Homo sapiens, UniProt P42336). The assay is described as follows: PI3K-alpha fluorescence polarization assay. The conditions noted are these: read-out: PI3Kα Median IC50.
Chain of PI3Kα (P42336 whole entry, species assumed): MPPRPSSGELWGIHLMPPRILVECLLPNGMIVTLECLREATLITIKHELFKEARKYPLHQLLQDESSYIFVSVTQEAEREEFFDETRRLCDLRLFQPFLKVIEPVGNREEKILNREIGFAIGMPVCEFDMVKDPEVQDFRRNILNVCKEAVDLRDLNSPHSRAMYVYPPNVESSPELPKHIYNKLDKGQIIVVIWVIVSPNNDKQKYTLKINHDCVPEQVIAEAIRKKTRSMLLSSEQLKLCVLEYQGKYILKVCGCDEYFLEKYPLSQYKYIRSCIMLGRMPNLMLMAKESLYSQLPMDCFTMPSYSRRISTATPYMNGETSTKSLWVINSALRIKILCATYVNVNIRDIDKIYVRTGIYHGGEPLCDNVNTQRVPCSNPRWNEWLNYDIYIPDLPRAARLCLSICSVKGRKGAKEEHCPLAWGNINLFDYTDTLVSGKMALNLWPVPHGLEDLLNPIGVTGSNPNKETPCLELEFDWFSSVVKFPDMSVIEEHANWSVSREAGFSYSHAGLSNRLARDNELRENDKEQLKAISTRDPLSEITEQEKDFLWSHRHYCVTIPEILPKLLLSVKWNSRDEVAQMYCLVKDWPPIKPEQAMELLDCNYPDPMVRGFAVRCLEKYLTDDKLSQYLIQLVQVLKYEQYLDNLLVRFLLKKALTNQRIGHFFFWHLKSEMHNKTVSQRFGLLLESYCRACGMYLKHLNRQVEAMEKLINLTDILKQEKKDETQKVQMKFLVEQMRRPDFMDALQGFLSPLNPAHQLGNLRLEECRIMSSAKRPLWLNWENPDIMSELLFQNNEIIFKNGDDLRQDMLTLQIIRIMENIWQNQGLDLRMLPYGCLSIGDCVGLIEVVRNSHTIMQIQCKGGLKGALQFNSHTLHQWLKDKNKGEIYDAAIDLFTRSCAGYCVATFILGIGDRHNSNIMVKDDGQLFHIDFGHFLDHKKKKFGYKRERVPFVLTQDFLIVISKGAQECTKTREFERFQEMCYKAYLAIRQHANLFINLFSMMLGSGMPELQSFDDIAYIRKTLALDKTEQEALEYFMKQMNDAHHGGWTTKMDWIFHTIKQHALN
Chain of PI3Kα (P27986 whole entry partner, species assumed): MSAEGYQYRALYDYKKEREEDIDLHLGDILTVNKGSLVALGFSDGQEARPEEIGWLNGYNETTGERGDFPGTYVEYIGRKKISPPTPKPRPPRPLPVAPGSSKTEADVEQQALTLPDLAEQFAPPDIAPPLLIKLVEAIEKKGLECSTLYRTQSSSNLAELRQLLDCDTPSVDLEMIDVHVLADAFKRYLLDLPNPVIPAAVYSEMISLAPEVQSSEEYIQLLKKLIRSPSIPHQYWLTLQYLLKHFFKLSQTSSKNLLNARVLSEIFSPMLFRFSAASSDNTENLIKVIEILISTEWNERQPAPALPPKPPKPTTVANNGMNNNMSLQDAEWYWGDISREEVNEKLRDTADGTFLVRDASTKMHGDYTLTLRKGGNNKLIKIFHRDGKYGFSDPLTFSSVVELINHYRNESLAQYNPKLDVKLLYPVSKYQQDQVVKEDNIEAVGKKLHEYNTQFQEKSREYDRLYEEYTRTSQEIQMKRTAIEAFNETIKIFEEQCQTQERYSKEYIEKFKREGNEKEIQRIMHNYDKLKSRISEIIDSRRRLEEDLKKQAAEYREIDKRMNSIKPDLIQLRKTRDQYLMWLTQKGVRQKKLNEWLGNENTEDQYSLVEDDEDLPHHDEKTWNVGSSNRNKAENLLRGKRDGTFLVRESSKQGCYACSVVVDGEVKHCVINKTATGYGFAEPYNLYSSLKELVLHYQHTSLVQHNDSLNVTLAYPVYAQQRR
For the next assay, the target named is PI3Kγ (Homo sapiens, UniProt P48736). The assay is described as follows: PI3K-gamma fluorescence polarization assay. To be noted: read-out: PI3Kγ Median IC50.
Chain of PI3Kγ (P48736 whole entry, species assumed): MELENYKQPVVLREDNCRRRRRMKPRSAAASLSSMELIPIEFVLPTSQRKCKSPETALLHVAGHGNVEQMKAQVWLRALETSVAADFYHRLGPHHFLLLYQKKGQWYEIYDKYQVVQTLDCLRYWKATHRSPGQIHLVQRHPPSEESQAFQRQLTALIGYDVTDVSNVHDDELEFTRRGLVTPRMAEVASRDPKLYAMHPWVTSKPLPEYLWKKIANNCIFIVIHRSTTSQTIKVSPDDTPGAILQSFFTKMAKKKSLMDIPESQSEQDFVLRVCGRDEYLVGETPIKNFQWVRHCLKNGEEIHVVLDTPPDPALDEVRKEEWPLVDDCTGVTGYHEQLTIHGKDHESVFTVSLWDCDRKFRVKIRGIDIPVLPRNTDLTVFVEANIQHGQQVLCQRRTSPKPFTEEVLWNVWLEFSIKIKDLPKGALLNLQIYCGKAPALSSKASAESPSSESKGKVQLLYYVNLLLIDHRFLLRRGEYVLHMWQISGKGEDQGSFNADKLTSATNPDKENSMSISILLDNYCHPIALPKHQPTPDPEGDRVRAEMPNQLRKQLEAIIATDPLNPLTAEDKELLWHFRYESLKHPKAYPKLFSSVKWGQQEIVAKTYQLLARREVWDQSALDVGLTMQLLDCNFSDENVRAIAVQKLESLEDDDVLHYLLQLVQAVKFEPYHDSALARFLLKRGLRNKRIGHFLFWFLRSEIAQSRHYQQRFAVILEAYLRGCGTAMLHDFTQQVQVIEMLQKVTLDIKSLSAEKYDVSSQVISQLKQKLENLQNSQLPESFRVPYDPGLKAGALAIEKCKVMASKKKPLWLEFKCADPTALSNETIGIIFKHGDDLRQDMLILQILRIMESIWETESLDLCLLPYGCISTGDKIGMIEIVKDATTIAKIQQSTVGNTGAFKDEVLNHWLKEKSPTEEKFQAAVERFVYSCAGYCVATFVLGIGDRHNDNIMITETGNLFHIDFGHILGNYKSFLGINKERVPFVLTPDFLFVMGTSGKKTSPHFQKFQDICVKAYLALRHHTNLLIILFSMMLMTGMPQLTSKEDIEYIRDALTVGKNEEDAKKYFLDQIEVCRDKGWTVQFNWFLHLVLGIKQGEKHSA
The next assay has as its target mTOR (Homo sapiens, UniProt P42345). The assay is described as follows: mTOR enzyme assay (DELFIA format, His6-S6K substrate). To be noted: read-out: mTOR Kinase Median IC50.

`CC(=O)Nc1ccc(-c2ccnc3c2c(/C=C2\Oc4cc(O)cc(O)c4C2=O)cn3C)cc1` [Compound 35, N-(4-{3-[(Z)-(4,6-dihydroxy-3-oxo-1-benzofuran-2(3H)-ylidene)methyl]-1-methyl-1H-pyrrolo[2,3-b]pyridin-4-yl}phenyl)acetamide]: the half-inhibitory concentration (IC50) (commonly the midpoint of a concentration-inhibition curve) on PI3Kα came to 11 nM; on PI3Kγ, 51 nM; at mTOR it was 0.4 nM.

Take `Cn1cc(/C=C2\Oc3cc(O)cc(O)c3C2=O)c2c(-c3ccc(NS(C)(=O)=O)cc3)ccnc21` [Compound 36, N-(4-{3-[(Z)-(4,6-dihydroxy-3-oxo-1-benzofuran-2(3H)-ylidene)methyl]-1-methyl-1H-pyrrolo[2,3-b]pyridin-4-yl}phenyl)methanesulfonamide]: the IC50 at PI3Kα came out at 7 nM; at PI3Kγ, 36 nM; on mTOR, 0.3 nM.

For `Cn1cc(/C=C2\Oc3cc(O)cc(O)c3C2=O)c2c(-c3ccc(N)cc3)ccnc21` [Compound 41, (2Z)-2-{[4-(4-aminophenyl)-1-methyl-1H-pyrrolo[2,3-b]pyridin-3-yl]methylene}-4,6-dihydroxy-1-benzofuran-3(2H)-one], the figures for the IC50 at PI3Kα, on PI3Kγ and at mTOR were 24 nM, 141 nM and 0.4 nM, respectively.

With `CNc1ccc(-c2ccnc3c2c(/C=C2\Oc4cc(O)cc(O)c4C2=O)cn3C)cc1` [Compound 43, (2Z)-4,6-dihydroxy-2-({1-methyl-4-[4-(methylamino)phenyl]-1H-pyrrolo[2,3-b]pyridin-3-yl}methylene)-1-benzofuran-3(2H)-one], the IC50 at PI3Kα was 19 nM; on PI3Kγ, 66 nM; on mTOR, 0.4 nM.

As to `Cn1cc(/C=C2\Oc3cc(O)cc(O)c3C2=O)c2c(N3CCOCC3)ccnc21` [Compound 45, (2Z)-4,6-dihydroxy-2-[(1-methyl-4-morpholin-4-yl-1H-pyrrolo[2,3-b]pyridin-3-yl)methylene]-1-benzofuran-3(2H)-one], the values for the concentration for half-maximal inhibition (IC50) at PI3Kα, on PI3Kγ and at mTOR were 12 nM, 131 nM and 0.3 nM, respectively.

As for `CN1CCN(c2ccnc3c2c(/C=C2\Oc4cccc(O)c4C2=O)cn3C)CC1` [Compound 47, (2Z)-4-hydroxy-2-{[1-methyl-4-(4-methylpiperazin-1-yl)-1H-pyrrolo[2,3-b]pyridin-3-yl]methylene}-1-benzofuran-3(2H)-one], the half-maximal inhibitory concentration (IC50) at PI3Kα came out at 173 nM; on PI3Kγ, 645 nM; on mTOR, 2.8 nM.

As for `Cn1cc(/C=C2\Oc3cccc(O)c3C2=O)c2c(N3CCOCC3)ccnc21` [Compound 48, (2Z)-4-hydroxy-2-[(1-methyl-4-morpholin-4-yl-1H-pyrrolo[2,3-b]pyridin-3-yl)methylene]-1-benzofuran-3(2H)-one], the IC50 is 53 nM on PI3Kα, 184 nM on PI3Kγ and 2.2 nM on mTOR.

Turning to `Cn1cc(/C=C2\Oc3cc(O)cc(O)c3C2=O)c2c(-c3ccc(N4CCOCC4)cc3)ccnc21` [Compound 49, (2Z)-4,6-dihydroxy-2-{[1-methyl-4-(4-morpholin-4-ylphenyl)-1H-pyrrolo[2,3-b]pyridin-3-yl]methylene}-1-benzofuran-3(2H)-one], the IC50 turned out to be 25 nM on PI3Kα, 83 nM on PI3Kγ and 0.2 nM at mTOR.

For the molecule `Cn1cc(/C=C2\Oc3cc(O)cc(O)c3C2=O)c2c(N3CCC(O)CC3)ccnc21` [Compound 50, (2Z)-4,6-dihydroxy-2-{[4-(4-hydroxypiperidin-1-yl)-1-methyl-1H-pyrrolo[2,3-b]pyridin-3-yl]methylene}-1-benzofuran-3(2H)-one], the IC50 at PI3Kα came out at 23 nM; at PI3Kγ, 177 nM; at mTOR, 0.2 nM.

For the molecule `Cn1cc(/C=C2\Oc3cc(O)cc(O)c3C2=O)c2c(/C=C/c3ccccc3)ccnc21` [Compound 51, (2Z)-4,6-dihydroxy-2-({1-methyl-4-[(E)-2-phenylvinyl]-1H-pyrrolo[2,3-b]pyridin-3-yl}methylene)-1-benzofuran-3(2H)-one], the half-inhibitory concentration (IC50) is 47 nM on PI3Kα, 92 nM on PI3Kγ and 3.4 nM on mTOR.

As for `CN(C)c1cccc(-c2ccnc3c2c(/C=C2\Oc4cc(O)cc(O)c4C2=O)cn3C)c1` [Compound 52, (2Z)-2-({4-[3-(dimethylamino)phenyl]-1-methyl-1H-pyrrolo[2,3-b]pyridin-3-yl}methylene)-4,6-dihydroxy-1-benzofuran-3(2H)-one], the half-maximal inhibitory concentration (IC50) on PI3Kα worked out at 123 nM; on PI3Kγ, 199 nM; at mTOR, 0.6 nM.

Regarding `Cn1cc(/C=C2\Oc3cc(O)cc(O)c3C2=O)c2c(N3CC4CCC(C3)O4)ccnc21` [Compound 54, (2Z)-4,6-dihydroxy-2-{[1-methyl-4-(8-oxa-3-azabicyclo[3.2.1]oct-3-yl)-1H-pyrrolo[2,3-b]pyridin-3-yl]methylene}-1-benzofuran-3(2H)-one], the IC50 on PI3Kα amounted to 11 nM; at PI3Kγ, 70 nM; on mTOR it was 0.1 nM.

Turning to `Cn1cc(/C=C2\Oc3cccc(O)c3C2=O)c2c(N3CC4CCC(C3)O4)ccnc21` [Compound 55, (2Z)-4-hydroxy-2-{[1-methyl-4-(8-oxa-3-azabicyclo[3.2.1]oct-3-yl)-1H-pyrrolo[2,3-b]pyridin-3-yl]methylene}-1-benzofuran-3(2H)-one], the IC50 at PI3Kα stood at 104 nM; on PI3Kγ, 51 nM; at mTOR, 0.4 nM.

For `CN1CCN(c2ccc(-c3ccnc4c3c(/C=C3\Oc5cc(O)cc(O)c5C3=O)cn4C)cc2)CC1` [Compound 56, (2Z)-4,6-dihydroxy-2-({1-methyl-4-[4-(4-methylpiperazin-1-yl)phenyl]-1H-pyrrolo[2,3-b]pyridin-3-yl}methylene)-1-benzofuran-3(2H)-one], the half-inhibitory concentration (IC50) at PI3Kα is 79 nM; at PI3Kγ it was 581 nM; on mTOR it was 1.9 nM.

As to `CN1CCN(c2ccc(-c3ccnc4c3c(/C=C3\Oc5cccc(O)c5C3=O)cn4C)cc2)CC1` [Compound 57, (2Z)-4-hydroxy-2-({1-methyl-4-[4-(4-methylpiperazin-1-yl)phenyl]-1H-pyrrolo[2,3-b]pyridin-3-yl}methylene)-1-benzofuran-3(2H)-one], the IC50 on PI3Kα was found to be 147 nM; on PI3Kγ, 148 nM; at mTOR it was 11.4 nM.

`Cn1cc(/C=C2\Oc3ccc(Br)cc3C2=O)c2c(N3CC4CCC(C3)O4)ccnc21` [Compound 59, (2Z)-5-bromo-2-{[1-methyl-4-(8-oxa-3-azabicyclo[3.2.1]oct-3-yl)-1H-pyrrolo[2,3-b]pyridin-3-yl]methylene}-1-benzofuran-3(2H)-one]: the IC50 at PI3Kα is 391 nM; on PI3Kγ, 980 nM; at mTOR, 35.5 nM.

Consider `CCNC(=O)Nc1ccc2c(c1)C(=O)/C(=C/c1cn(C)c3nccc(N4CC5CCC(C4)O5)c13)O2` [Compound 61, 1-ethyl-3-[(2Z)-2-{[1-methyl-4-(8-oxa-3-azabicyclo[3.2.1]oct-3-yl)-1H-pyrrolo[2,3-b]pyridin-3-yl]methylene}-3-oxo-2,3-dihydro-1-benzofuran-5-yl]Urea], for which the IC50 on PI3Kα is 311 nM; on PI3Kγ it was 668 nM; at mTOR, 57 nM.

As to `Cn1cc(/C=C2\Oc3cccc(O)c3C2=O)c2c(-c3ccc(N4CCOCC4)nc3)ccnc21` [Compound 69, (2Z)-4-hydroxy-2-{[1-methyl-4-(6-morpholin-4-ylpyridin-3-yl)-1H-pyrrolo[2,3-b]pyridin-3-yl]methylene}-1-benzofuran-3(2H)-one], the half-maximal inhibitory concentration (IC50) was determined as 64 nM at PI3Kα, 281 nM at PI3Kγ and 24.8 nM at mTOR.
